Data reported in ChEMBL document CHEMBL5579889, “Structure-Based Design and Development of Phosphine Oxides as a Novel Chemotype for Antibiotics that Dysregulate Bacterial ClpP Proteases” (J Med Chem, 2024).
pEC50, pKd: −log10 of the molar value. Converted amounts (≈) assume the structure as drawn. The source made the active and inactive calls. No cut-off for these calls is given here. Bridge positions count the residues as written; N and C are the ends. Square brackets hold non-standard residues; d marks the D form. Peptide text beside a SMILES is read from it. * marks the point of attachment. Phe(3,5-F2) = N[C@@H](Cc1cc(F)cc(F)c1)C(=O)O; Pro(4R-Me) = C[C@H]1CN[C@H](C(=O)O)C1; aThr = C[C@H](O)[C@H](N)C(=O)O; Pip = O=C(O)[C@@H]1CCCCN1; X1 = CCC/C=C/C=C/C(=O)*

Columns and labels:
[1] = target: ATP-dependent Clp protease proteolytic subunit (Neisseria gonorrhoeae) (UniProt Q5F914); experiment: Activation of N-terminal His-tagged recombinant Neisseria gonorrhoeae ClpP expressed in Escherichia coli SG1146(DE3) assessed as degradation of casein-FITC at 100 uM preincubated for 10 mins followed by casein addition measured for over 100 mins by fluorescence based assay; conditions: time > 110.0 min
[2] = target: T1, ATP-dependent Clp protease proteolytic subunit (Escherichia coli (strain K12), UniProt P0A6G7); experiment: Activation of N-terminal His-tagged recombinant Escherichia coli ClpP expressed in Escherichia coli SG1146(DE3) assessed as degradation of casein-FITC preincubated for 10 mins followed by casein addition measured for over 100 mins by fluorescence based assay
[3] = target: ATP-dependent Clp protease proteolytic subunit (Escherichia coli (strain K12)) (UniProt P0A6G7); experiment: Activation of N-terminal His-tagged recombinant Escherichia coli ClpP expressed in Escherichia coli SG1146(DE3) assessed as degradation of casein-FITC at 100 uM preincubated for 10 mins followed by casein addition measured for over 100 mins by fluorescence based assay; conditions: filed as activator, time > 110.0 min
Neisseria gonorrhoeae [4] = experiment: Antibacterial activity against Neisseria gonorrhoeae WHO P measured after 16 to 18 hrs by OD based assay; format: functional; conditions: time 16-18 hrs
Neisseria meningitidis [5] = experiment: Antibacterial activity against Neisseria meningitidis BZ169 measured after 16 to 18 hrs by OD based assay; format: functional; conditions: time 16-18 hrs
Neisseria gonorrhoeae [6] = experiment: Antibacterial activity against Neisseria gonorrhoeae WHO G measured after 16 to 18 hrs by OD based assay; format: functional; conditions: time 16-18 hrs
Neisseria meningitidis [7] = experiment: Antibacterial activity against Neisseria meningitidis AK50 measured after 16 to 18 hrs by OD based assay; format: functional; conditions: time 16-18 hrs
Neisseria gonorrhoeae [8] = experiment: Antibacterial activity against Neisseria gonorrhoeae WHO V measured after 16 to 18 hrs by OD based assay; format: functional; conditions: time 16-18 hrs
Neisseria gonorrhoeae [9] = experiment: Antibacterial activity against Neisseria gonorrhoeae WHO X measured after 16 to 18 hrs by OD based assay; format: functional; conditions: time 16-18 hrs
Neisseria gonorrhoeae [10] = experiment: Antibacterial activity against Neisseria gonorrhoeae FA19 measured after 16 to 18 hrs by OD based assay; format: functional; conditions: time 16-18 hrs
Neisseria gonorrhoeae [11] = experiment: Antibacterial activity against Neisseria gonorrhoeae WHO Z measured after 16 to 18 hrs by OD based assay; format: functional; conditions: time 16-18 hrs
Neisseria gonorrhoeae [12] = experiment: Antibacterial activity against Neisseria gonorrhoeae WHO L measured after 16 to 18 hrs by OD based assay; format: functional; conditions: time 16-18 hrs
Neisseria gonorrhoeae [13] = experiment: Antibacterial activity against Neisseria gonorrhoeae WHO N measured after 16 to 18 hrs by OD based assay; format: functional; conditions: time 16-18 hrs
Neisseria meningitidis [14] = experiment: Antibacterial activity against wild-type Neisseria meningitidis H44/76 measured after 16 to 18 hrs by OD based assay; format: functional; conditions: time 16-18 hrs
Neisseria meningitidis [15] = experiment: Antibacterial activity against Neisseria meningitidis EG329 measured after 16 to 18 hrs by OD based assay; format: functional; conditions: time 16-18 hrs
Neisseria meningitidis [16] = experiment: Antibacterial activity against Neisseria meningitidis NG144/82 measured after 16 to 18 hrs by OD based assay; format: functional; conditions: time 16-18 hrs
Neisseria meningitidis [17] = experiment: Antibacterial activity against Neisseria meningitidis NGF26 measured after 16 to 18 hrs by OD based assay; format: functional; conditions: time 16-18 hrs
[18] = target: T2, ATP-dependent Clp protease proteolytic subunit (Neisseria gonorrhoeae, UniProt Q5F914); experiment: Activation of N-terminal His-tagged recombinant Neisseria gonorrhoeae ClpP expressed in Escherichia coli SG1146(DE3) assessed as degradation of casein-FITC preincubated for 10 mins followed by casein addition measured for over 100 mins by fluorescence based assay
Neisseria gonorrhoeae [19] = experiment: Antibacterial activity against Neisseria gonorrhoeae WHO Y measured after 16 to 18 hrs by OD based assay; format: functional; conditions: time 16-18 hrs
Neisseria gonorrhoeae [20] = experiment: Antibacterial activity against Neisseria gonorrhoeae WHO K measured after 16 to 18 hrs by OD based assay; format: functional; conditions: time 16-18 hrs
Neisseria gonorrhoeae [21] = experiment: Antibacterial activity against Neisseria gonorrhoeae MS11 measured after 16 to 18 hrs by OD based assay; format: functional; conditions: time 16-18 hrs
Neisseria meningitidis [22] = experiment: Antibacterial activity against Neisseria meningitidis SWZ107 measured after 16 to 18 hrs by OD based assay; format: functional; conditions: time 16-18 hrs
Neisseria meningitidis [23] = experiment: Antibacterial activity against Neisseria meningitidis 88/03415 measured after 16 to 18 hrs by OD based assay; format: functional; conditions: time 16-18 hrs
Neisseria gonorrhoeae [24] = experiment: Antibacterial activity against Neisseria gonorrhoeae WHO M measured after 16 to 18 hrs by OD based assay; format: functional; conditions: time 16-18 hrs
Neisseria meningitidis [25] = experiment: Antibacterial activity against Neisseria meningitidis NGPB24 measured after 16 to 18 hrs by OD based assay; format: functional; conditions: time 16-18 hrs
Neisseria meningitidis [26] = experiment: Antibacterial activity against Neisseria meningitidis BZ133 measured after 16 to 18 hrs by OD based assay; format: functional; conditions: time 16-18 hrs
Neisseria meningitidis [27] = experiment: Antibacterial activity against Neisseria meningitidis H44/76 harboring deltaclpP measured after 16 to 18 hrs by OD based assay; format: functional; conditions: time 16-18 hrs
[28] = target: T1, ATP-dependent Clp protease proteolytic subunit; experiment: Binding affinity to His-tagged recombinant Escherichia coli ClpP extracted from Escherichia coli SG1146(DE3) using casein as substrate assessed as apparent dissociation constant incubated upto 120 mins by SDS-PAGE analysis; conditions: read-out: Kd(app)
Streptococcus pneumoniae = experiment: Activation of recombinant Streptococcus pneumoniae ClpP extracted from Escherichia coli SG1146(DE3) assessed as degradation of casein-FITC at 100 uM preincubated for 10 mins followed by casein addition measured for over 100 mins by fluorescence based assay; conditions: time > 110.0 min
[29] = Cytotoxicity against wild-type HEK293-T-REx cells assessed as cell viability upto 100 uM incubated for 3 days by AlamarBlue assay; format: toxicity, cell-based; conditions: human, 72 h, time 3 day
[30] = target: T3, ATP-dependent Clp protease proteolytic subunit (Staphylococcus aureus (strain NCTC 8325)) (UniProt Q2G036); experiment: Activation of N-terminal His-tagged recombinant Staphylococcus aureus ClpP expressed in Escherichia coli SG1146(DE3) assessed as degradation of casein-FITC at 100 uM preincubated for 10 mins followed by casein addition measured for over 100 mins by fluorescence based assay; conditions: time > 110.0 min
T3 sequence (whole entry): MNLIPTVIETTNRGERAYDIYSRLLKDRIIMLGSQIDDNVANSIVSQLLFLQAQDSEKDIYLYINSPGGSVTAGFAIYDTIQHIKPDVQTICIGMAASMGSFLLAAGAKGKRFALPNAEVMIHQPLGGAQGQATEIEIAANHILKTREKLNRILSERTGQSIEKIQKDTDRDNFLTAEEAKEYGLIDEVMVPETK

[31] = target: ATP-dependent Clp protease proteolytic subunit, mitochondrial (Homo sapiens) (UniProt Q16740); experiment: Activation of N-terminal His-tagged recombinant human ClpP expressed in Escherichia coli SG1146(DE3) assessed as degradation of casein-FITC at 100 uM preincubated for 10 mins followed by casein addition measured for over 100 mins by fluorescence based assay; conditions: time > 110.0 min
[32] = target: T2, ATP-dependent Clp protease proteolytic subunit; experiment: Binding affinity to His-tagged recombinant Neisseria gonorrhoeae ClpP extracted from Escherichia coli SG1146(DE3) using casein as substrate assessed as apparent dissociation constant incubated upto 120 mins by SDS-PAGE analysis; conditions: read-out: Kd(app)

T2 sequence (Q5F914 whole entry): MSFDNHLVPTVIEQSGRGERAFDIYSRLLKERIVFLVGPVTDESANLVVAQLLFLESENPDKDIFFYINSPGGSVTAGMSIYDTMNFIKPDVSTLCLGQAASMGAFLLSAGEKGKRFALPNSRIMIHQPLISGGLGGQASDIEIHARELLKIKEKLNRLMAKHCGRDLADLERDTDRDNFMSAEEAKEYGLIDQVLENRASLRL
T1 sequence (P0A6G7 whole entry): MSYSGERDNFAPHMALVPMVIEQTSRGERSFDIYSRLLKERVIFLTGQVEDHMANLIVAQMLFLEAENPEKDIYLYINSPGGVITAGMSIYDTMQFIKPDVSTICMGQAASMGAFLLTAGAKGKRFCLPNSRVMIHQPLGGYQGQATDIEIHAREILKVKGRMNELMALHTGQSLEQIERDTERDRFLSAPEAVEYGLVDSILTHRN
Sequence of ATP-dependent Clp protease proteolytic subunit, mitochondrial (Homo sapiens) (Q16740 whole entry): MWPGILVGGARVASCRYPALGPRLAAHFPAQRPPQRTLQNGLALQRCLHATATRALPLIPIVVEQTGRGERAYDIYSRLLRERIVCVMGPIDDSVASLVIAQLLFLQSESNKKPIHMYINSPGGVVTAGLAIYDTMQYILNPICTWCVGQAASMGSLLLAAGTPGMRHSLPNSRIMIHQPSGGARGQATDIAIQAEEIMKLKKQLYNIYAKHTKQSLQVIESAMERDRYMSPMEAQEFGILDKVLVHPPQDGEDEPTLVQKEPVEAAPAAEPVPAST
Sequence of ATP-dependent Clp protease proteolytic subunit (Neisseria gonorrhoeae) (Q5F914 whole entry): as the sequence (Q5F914 whole entry) above
Sequence of ATP-dependent Clp protease proteolytic subunit (Escherichia coli (strain K12)) (P0A6G7 whole entry): as the sequence (P0A6G7 whole entry) above

SMILES	pEC50 [2]	MIC (Neisseria gonorrhoeae [4])	MIC (Neisseria meningitidis [5])	MIC (Neisseria gonorrhoeae [6])	MIC (Neisseria meningitidis [7])	MIC (Neisseria gonorrhoeae [8])	MIC (Neisseria gonorrhoeae [9])	MIC (Neisseria gonorrhoeae [10])	MIC (Neisseria gonorrhoeae [11])	MIC (Neisseria gonorrhoeae [12])	MIC (Neisseria gonorrhoeae [13])	MIC (Neisseria meningitidis [14])	MIC (Neisseria meningitidis [15])	MIC (Neisseria meningitidis [16])	MIC (Neisseria meningitidis [17])	pEC50 [18]	MIC (Neisseria gonorrhoeae [19])	MIC (Neisseria gonorrhoeae [20])	MIC (Neisseria gonorrhoeae [21])	MIC (Neisseria meningitidis [22])	further results
CC(C(=O)NCCSc1ccccc1C(F)(F)F)P(=O)(c1ccc(C(F)(F)F)cc1)c1ccc(C(F)(F)F)cc1 (stereo unspecified)	5.35	–	–	–	–	–	–	–	–	–	–	–	–	–	–	–	–	–	–	–	Activity [1]: inactive; Activity [3]: Active
CCC/C=C/C=C/C(=O)N[C@@H](Cc1cc(F)cc(F)c1)C(=O)N[C@@H]1C(=O)N2CCC[C@H]2C(=O)N2CCCC[C@H]2C(=O)N[C@@H](C)C(=O)N2C[C@H](C)C[C@H]2C(=O)O[C@H]1C (X1-[Phe(3,5-F2)][aThr]P[Pip]A[Pro(4R-Me)]; ester 2-C)	5.33	4.7 µM (≈ 3.75 µg/mL)	0.3 µM (≈ 0.239 µg/mL)	0.3 µM (≈ 0.239 µg/mL)	1.6 µM (≈ 1.28 µg/mL)	3.1 µM (≈ 2.47 µg/mL)	0.3 µM (≈ 0.239 µg/mL)	1.6 µM (≈ 1.28 µg/mL)	0.3 µM (≈ 0.239 µg/mL)	0.3 µM (≈ 0.239 µg/mL)	0.3 µM (≈ 0.239 µg/mL)	< 0.3 µM	< 0.3 µM	0.3 µM (≈ 0.239 µg/mL)	2.4 µM (≈ 1.91 µg/mL)	6.64	0.3 µM (≈ 0.239 µg/mL)	0.3 µM (≈ 0.239 µg/mL)	0.3 µM (≈ 0.239 µg/mL)	< 0.3 µM	MIC (Neisseria meningitidis [23]): 0.3 µM (≈ 0.239 µg/mL); MIC (Neisseria gonorrhoeae [24]): 0.3 µM (≈ 0.239 µg/mL); MIC (Neisseria meningitidis [25]): 0.3 µM (≈ 0.239 µg/mL); MIC (Neisseria meningitidis [26]): 0.3 µM (≈ 0.239 µg/mL); MIC (Neisseria meningitidis [27]): > 25 µM
CC(C)(C(=O)NCCSc1ccccc1Cl)P(=O)(c1ccc(C(F)(F)F)cc1)c1ccc(C(F)(F)F)cc1	5.32	–	–	–	–	–	–	–	–	–	–	–	–	–	–	5.80	–	–	–	–	–
CC(C)(C(=O)NCCSc1ccccc1C(F)(F)F)P(=O)(c1ccc(C(F)(F)F)cc1)c1ccc(C(F)(F)F)cc1	5.35	–	–	–	–	–	–	–	–	–	–	–	–	–	–	5.48	–	–	–	–	–
CC(C)(C(=O)NCCSc1ccccc1C(F)(F)F)P(=O)(c1ccc(C(F)(F)F)cn1)c1ccc(C(F)(F)F)cn1	6.70	1.6 µM (≈ 1.01 µg/mL)	18.8 µM (≈ 11.8 µg/mL)	1.6 µM (≈ 1.01 µg/mL)	50 µM (≈ 31.5 µg/mL)	3.1 µM (≈ 1.95 µg/mL)	1.6 µM (≈ 1.01 µg/mL)	1.6 µM (≈ 1.01 µg/mL)	2.4 µM (≈ 1.51 µg/mL)	1.6 µM (≈ 1.01 µg/mL)	1.6 µM (≈ 1.01 µg/mL)	0.3 µM (≈ 0.189 µg/mL)	13.8 µM (≈ 8.69 µg/mL)	18.8 µM (≈ 11.8 µg/mL)	18.8 µM (≈ 11.8 µg/mL)	6.80	3.1 µM (≈ 1.95 µg/mL)	1.6 µM (≈ 1.01 µg/mL)	1.6 µM (≈ 1.01 µg/mL)	123 µM (≈ 77.4 µg/mL)	pKd [28]: 6.57; Activity (Streptococcus pneumoniae): inactive; Activity [29]: Non-Toxic; Activity [30]: inactive; Activity [31]: inactive; pKd [32]: 6.16; MIC (Neisseria meningitidis [23]): 18.8 µM (≈ 11.8 µg/mL); MIC (Neisseria gonorrhoeae [24]): 1.6 µM (≈ 1.01 µg/mL); MIC (Neisseria meningitidis [25]): 25 µM (≈ 15.7 µg/mL); MIC (Neisseria meningitidis [26]): 25 µM (≈ 15.7 µg/mL); MIC (Neisseria meningitidis [27]): 3.1 µM (≈ 1.95 µg/mL)
CC(C(=O)NCCSc1ccccc1C(F)(F)F)P(=O)(c1ccccn1)c1ccccn1 (stereo unspecified)	–	–	–	–	–	–	–	–	–	–	–	–	–	–	–	–	–	–	–	–	Activity (Streptococcus pneumoniae): inactive; Activity [30]: inactive; Activity [31]: inactive
